# Measurements: US20230146455A1, “TREATMENT OF INFLAMMATORY DISEASES WITH PEPTIDES AND PHARMACEUTICAL COMPOSITIONS” (Yuyu Pharma, Inc., priority 2020, published 2023)
# “And” between values parts separate entries of the source, which are not always exact repeats. Equal entries are not always repeated. Where a SMILES comes first, the peptide text is derived from it. [ ]: non-standard residue; d: D form. Hyp = O=C(O)[C@@H]1C[C@@H](O)CN1
# Tested on: IL-1 beta/IL-1F2
# Assay: Example 8 main study Luminex, LPS hPBMCs: IL-1 beta/IL-1F2
# Format: cell-based, human
# Description: Human PBMCs were pretreated with YY-101, YDE-011, YDE-043 or reference compound; Xiidra® at various concentration (ranging from […] to 500 nM) for 2 h before stimulation. An equal volume of 0.5% DMSO was used as a vehicle control. Then, the cells were treated with LPS at 5 ug/ml, which was selected based on the pilot study. The supernatants from treated cells were harvested at 24 h and placed in a 96 well for Luminex cytokine & chemokine profiling using a Luminex 200 multiplex assay (Luminex; R&D system, USA).
# The main study arm with triplicate wells per group in a 24-well plate: • 1. Blank • 2. PBMC: 0.5% DMSO • 3. PBMC+LPS (5 ug/ml) • 4. PBMC+YY-101 500 nM • 5. PBMC+YY-101 50 nM • 6. PBMC+YY-101 5 nM • 7. PBMC+YY-101 0.5 nM • 8. PBMC+LPS (5 ug/ml)+Xiidra® 500 nM • 9. PBMC+LPS (5 ug/ml)+Xiidra® 50 nM • 10. PBMC+LPS (5 ug/ml)+Xiidra® 5 nM • 11. PBMC+LPS (5 ug/ml)+Xiidra® 0.5 nM • 12. PBMC+LPS (5 ug/ml)+Xiidra® 0.05 nM • 13. PBMC+LPS (5 ug/ml)+Xiidra® 0.005 nM • 14. PBMC+LPS (5 ug/ml)+YY-101 500 nM • 15. PBMC+LPS (5 ug/ml)+YY-101 50 nM • 16. PBMC+LPS (5 ug/ml)+YY-101 5 nM • 17. PBMC+LPS (5 ug/ml)+YY-101 0.5 nM • 18. PBMC+LPS (5 ug/ml)+YY-101 0.05 nM • 19. PBMC+LPS (5 ug/ml)+YY-101 0.005 nM • 20. PBMC+LPS (5 ug/ml)+YDE-011 500 nM • 21. PBMC+LPS (5 ug/ml)+YDE-011 50 nM • 22. PBMC+LPS (5 ug/ml)+YDE-011 5 nM • 23. PBMC+LPS (5 ug/ml)+YDE-011 0.5 nM • 24. PBMC+LPS (5 ug/ml)+YDE-011 0.05 nM • 25. PBMC+LPS (5 ug/ml)+YDE-011 0.005 nM • 26. PBMC+LPS (5 ug/ml)+YDE-043 500 nM • 27. PBMC+LPS (5 ug/ml)+YDE-043 50 nM • 28. PBMC+LPS (5 ug/ml)+YDE-043 5 nM • 29. PBMC+LPS (5 ug/ml)+YDE-043 0.5 nM • 30. PBMC+LPS (5 ug/ml)+YDE-043 0.05 nM • 31. PBMC+LPS (5 ug/ml)+YDE-043 0.005 nM
# Multiplex assay was used to measure 30 cytokines and chemokines. The 1:200 diluted cell supernatant and serial dilution of the standard were dispensed into a 96 well plate at 50 ul/well. Then, the pre-mixed cocktail of antibody-coated magnetic beads was dispensed at 50 ul/well and incubated at room temperature for 2 h in a horizontal orbital microplate shaker at 800±500 rpm. The beads were washed using a magnetic device to prevent loss. The biotin-antibody was dispensed in 50 ul of each well and incubated at room temperature for 1 h in a shaker at 800±500 rpm. After washing, streptavidin-PE was added at 50 ul/well and incubated at room temperature for 30 min in a shaker under the same conditions. Finally, after washing, wash buffer (100 ul/well) was added to the plate and incubated in a shaker for 2 min. The Luminex™ 200 setting were set according to the manufacturer's protocol. The data was calculated with a standard five-parameter logistic nonlinear regression analysis of the data (xPonent software 4.2, USA). Results were presented as concentration (ng/ml or pg/ml).
# [1] = PBMC + LPS(5 ug/ml) + test article 0.005 nM, Mean
# [2] = PBMC + LPS(5 ug/ml) + test article 0.005 nM, individual replicates
# [3] = PBMC + LPS(5 ug/ml) + test article 0.05 nM, Mean
# [4] = PBMC + LPS(5 ug/ml) + test article 0.05 nM, individual replicates
# [5] = PBMC + LPS(5 ug/ml) + test article 0.5 nM, Mean
# [6] = PBMC + LPS(5 ug/ml) + test article 0.5 nM, individual replicates
# [7] = PBMC + LPS(5 ug/ml) + test article 5 nM, Mean
# [8] = PBMC + LPS(5 ug/ml) + test article 5 nM, individual replicates
# [9] = PBMC + LPS(5 ug/ml) + test article 50 nM, Mean
# [10] = PBMC + LPS(5 ug/ml) + test article 50 nM, individual replicates
# [11] = PBMC + LPS(5 ug/ml) + test article 500 nM, Mean
# [12] = PBMC + LPS(5 ug/ml) + test article 500 nM, individual replicates
# [13] = PBMC + test article 0.5 nM, no LPS, Mean
# [14] = PBMC + test article 0.5 nM, no LPS, individual replicates (1st, 2nd)
# [15] = PBMC + test article 5 nM, no LPS, Mean
# [16] = PBMC + test article 5 nM, no LPS, individual replicates (1st, 2nd)
# [17] = PBMC + test article 0.05 uM, no LPS, Mean
# [18] = PBMC + test article 0.05 uM, no LPS, individual replicates (1st, 2nd)
# [19] = PBMC + test article 50 nM, no LPS, Mean
# [20] = PBMC + test article 50 nM, no LPS, individual replicates (1st, 2nd)
# [21] = PBMC + test article 500 nM, no LPS, Mean
# [22] = PBMC + test article 500 nM, no LPS, individual replicates (1st, 2nd)
smiles,measurement,setting,value
CC(C)C[C@H](NC(=O)CNC(=O)[C@H](CC(=O)O)NC(=O)[C@H](CCC(N)=O)NC(=O)CNC(=O)[C@@H]1C[C@@H](O)CN1)C(=O)N[C@@H](C)C(=O)NCC(=O)N1CCC[C@H]1C(=O)N[C@@H](CCCCN)C(=O)O [YY-101] (H-[Hyp]GQDGLAGPK-OH; N-terminus and C-terminus assumed),IL-1 beta/IL-1F2 Concentration,[1],5806.3 pg/mL
same,IL-1 beta/IL-1F2 MFI,[1],105.2
same,IL-1 beta/IL-1F2 Concentration,[2],5975.0 pg/mL and 6004.7 pg/mL and 5439.3 pg/mL
same,IL-1 beta/IL-1F2 MFI,[2],108.0 and 108.5 and 99.0
same,IL-1 beta/IL-1F2 Concentration,[3],6004.8 pg/mL
same,IL-1 beta/IL-1F2 MFI,[3],108.5
same,IL-1 beta/IL-1F2 Concentration,[4],5736.8 pg/mL and 6511.1 pg/mL and 5766.6 pg/mL
same,IL-1 beta/IL-1F2 MFI,[4],104.0 and 117.0 and 104.5
same,IL-1 beta/IL-1F2 Concentration,[5],6044.5 pg/mL
same,IL-1 beta/IL-1F2 MFI,[5],109.2
same,IL-1 beta/IL-1F2 Concentration,[6],5736.8 pg/mL and 5975.0 pg/mL and 6421.7 pg/mL
same,IL-1 beta/IL-1F2 MFI,[6],104.0 and 108.0 and 115.5
same,IL-1 beta/IL-1F2 Concentration,[7],5875.9 pg/mL
same,IL-1 beta/IL-1F2 MFI,[7],106.3
same,IL-1 beta/IL-1F2 Concentration,[8],5498.8 pg/mL and 5558.3 pg/mL and 6570.7 pg/mL
same,IL-1 beta/IL-1F2 MFI,[8],100.0 and 101.0 and 118.0
same,IL-1 beta/IL-1F2 Concentration,[9],5608.2 pg/mL
same,IL-1 beta/IL-1F2 MFI,[9],101.8
same,IL-1 beta/IL-1F2 Concentration,[10],5201.4 pg/ml (2×) and 6421.7 pg/ml
same,IL-1 beta/IL-1F2 MFI,[10],95.0 (2×) and 115.5
same,IL-1 beta/IL-1F2 Concentration,[11],5578.2 pg/mL
same,IL-1 beta/IL-1F2 MFI,[11],101.3
same,IL-1 beta/IL-1F2 Concentration,[12],5260.9 pg/mL and 5915.4 pg/mL and 5558.3 pg/mL
same,IL-1 beta/IL-1F2 MFI,[12],96.0 and 107.0 and 101.0
same,IL-1 beta/IL-1F2 Concentration,[13],391.1 pg/mL
same,IL-1 beta/IL-1F2 MFI,[13],13.5
same,IL-1 beta/IL-1F2 Concentration,[14],362.0 pg/mL and 420.1 pg/mL
same,IL-1 beta/IL-1F2 MFI,[14],13.0 and 14.0
same,IL-1 beta/IL-1F2 Concentration,[15],391.1 pg/mL
same,IL-1 beta/IL-1F2 MFI,[15],13.5
same,IL-1 beta/IL-1F2 Concentration,[16],362.0 pg/mL and 420.1 pg/mL
same,IL-1 beta/IL-1F2 MFI,[16],13.0 and 14.0
same,IL-1 beta/IL-1F2 Concentration,[17],420.1 pg/mL
same,IL-1 beta/IL-1F2 MFI,[17],14.0
same,IL-1 beta/IL-1F2 Concentration,[18],420.1 pg/mL
same,IL-1 beta/IL-1F2 MFI,[18],14.0
same,IL-1 beta/IL-1F2 Concentration,[19],362.0 pg/mL
same,IL-1 beta/IL-1F2 MFI,[19],13.0
same,IL-1 beta/IL-1F2 Concentration,[20],362.0 pg/mL
same,IL-1 beta/IL-1F2 MFI,[20],13.0
same,IL-1 beta/IL-1F2 Concentration,[21],420.1 pg/mL
same,IL-1 beta/IL-1F2 MFI,[21],14.0
same,IL-1 beta/IL-1F2 Concentration,[22],420.1 pg/mL
same,IL-1 beta/IL-1F2 MFI,[22],14.0
